Assay results from patent publication US10294246B2, “Substituted boronic acids and boronate esters as immunoproteasome inhibitors” (MERCK PATENT GMBH, priority 2014, dated 2019).

Assays:
[1] = biological target: human immunoproteasome (LMP7) (Homo sapiens (Human), UniProt P28062); experiment: Determination of LMP7 activity (fluorescence intensity assay, Suc-LLVY-AMC); format: biochemical; details: for Selectivity LMP7 vs Beta5: LMP7 versus Beta5; for IC50: purified human immunoproteasome 0.25 nM, Suc-LLVY-AMC 40 μM
Method in brief: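 0.25 nM purified human immunoproteasome preincubated 20 min at 25 °C with serially diluted compounds in 50 mM Tris pH 7.4, 0.03% SDS, 1 mM EDTA, 1% DMSO. Reaction started with 40 μM Suc-LLVY-AMC, run 60 min at 37 °C. Fluorescence read at ex 350/em 450 nm.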

[2] = biological target: human constitutive proteasome (Beta5) (Homo sapiens (Human), UniProt P28074); experiment: Determination of Beta5 activity (fluorescence intensity assay, Suc-LLVY-AMC); format: biochemical; details: purified human constitutive proteasome 1.25 nM, Suc-LLVY-AMC 40 μM
Method in brief: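 Purified constitutive proteasome (1.25 nM) was preincubated with compounds 20 min at 25 °C in 50 mM Tris pH 7.4, 0.03% SDS, 1 mM EDTA, 1% DMSO. Suc-LLVY-AMC (40 μM) was then added for 60 min at 37 °C. AMC fluorescence was read at ex 350/em 450 nm.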

[3] = biological target: LMP7 subunit of the immunoproteasome (Homo sapiens (Human), UniProt P28062); details: Singh et al., Br. J. Hematology 152(2): 155-163; cited from earlier work

| SMILES | Selectivity LMP7 vs Beta5 [1] | IC50 [1] [nM] | IC50 [2] [nM] | selectivity for the LMP7 subunit of the immunoproteasome [3] [fold] |
| --- | --- | --- | --- | --- |
| N#Cc1ccccc1CC(=O)N[C@@H](C[C@H]1COc2c(Cl)cccc21)B(O)O [Compound No. 135, [(1R)-2-[(3R)-7-chloro-2,3-dihydrobenzofuran-3-yl]-1-[[2-(2-cyanophenyl)acetyl]amino]ethyl]boronic acid] | +++++ (Selectivity ≥ 100) | 50 to 500 | > 5000 |  |
| O=C(CCOc1ccccc1)N[C@@H](C[C@@H]1COc2ccccc21)B(O)O [Compound No. 136, [(1R)-2-[(3S)-2,3-dihydrobenzofuran-3-yl]-1-(3-phenoxypropanoylamino)ethyl]boronic acid] | +++++ (Selectivity ≥ 100) | < 50 | 50 to 500 |  |
| CC1=C(C(=O)N[C@H](C)C(=O)N[C@@H](Cc2c[nH]c3ccccc23)C(=O)N[C@@H](Cc2ccccc2)C(=O)[C@@]2(C)CO2)Cc2ccccc21 [PR-924] |  |  |  | 100 |
